Experimental data from article PMC12118597 (Science Advances, 2025).
pIC50, pKi: −log10 of the molar value. Like-named read-outs stand apart in the source and are kept apart here.

Tests used:
[1] = molecular target: T1, SARS-CoV-2 NSP3 macrodomain (Mac1) (Severe acute respiratory syndrome coronavirus 2, UniProt P0DTD1); experiment: biochemical; type: binding; settings: for Average % competition: Single dose, concentration 200 μM
[2] = molecular target: T1, SARS-CoV-2 NSP3 macrodomain (Mac1); type: binding; settings: for PanDDA run, TFA/DMSO background map: 1-BDC / PanDDA run, TFA/DMSO background map: Hit: crystal soak 10 mM; for Number of isomers bound: ligand modeling, Mac1 crystal soak; for Isomers modeled: stereoisomer(s) modeled as bound, residues 201/202/203
[3] = compound at 200 μM, mean of three to four technical replicates, read-out: % competition at 200 μM (preliminary HTRF screen)
[4] = SARS CoV-2 macrodomain HTRF assay
[5] = SARS CoV-2 macrodomain HTRF assay, dose-response, read-out: IC50
[6] = SARS CoV-2 macrodomain HTRF assay, single dose concentration 200 μM, read-out: Average % competition

Compound	Average % competition [1] [%]	inhibition at 200 µM [1, 3] [%]	PanDDA run, TFA/DMSO background map: 1-BDC [2]	PanDDA run, TFA/DMSO background map: Hit [2]	Number of isomers bound [2]	other results
OCC(CC1CCOC1)Nc1ncnc2[nH]ccc12 (stereo not shown) [AVI-3665]	11	11	0.15	TRUE	1	–
CCC(O)[C@H]1CCCN1c1ncnc2[nH]ccc12 (stereo partly shown) [AVI-3666]	–	–	–	–	1	Ligand efficiency (binding enery per heavy atom) [1, 4]: 0.34
CCC(Nc1ncnc2[nH]ccc12)C(C)(C)O (stereo not shown) [AVI-3667]	51	51	0.07	TRUE	1	–
CC(c1ccccc1)C(CO)Nc1ncnc2[nH]ccc12 (stereo not shown) [AVI-3669]	–	–	0.09	TRUE	1	Ligand efficiency ([1]; Binding energy per heavy atom): 0.33; fold more potent / increased binding affinity than AVI-313 parent ([1]; HTRF IC50 compared with AVI-313): > 10 fold; pKi [1, 4]: 5.09; Ligand efficiency (binding enery per heavy atom) [1, 4]: 0.33; pIC50 ([1]; read-out: IC50 (confirmatory HTRF dose-response screen)): 5.06
O=C(O)C(F)(F)F.OCC1(Nc2ncnc3[nH]ccc23)CCC1 [AVI-3670]	–	–	0.12	TRUE	1	pKi [1, 4]: 4.44; Ligand efficiency (binding enery per heavy atom) [1, 4]: 0.38; pIC50 [1, 5]: 4.41
CN(C)CC(CO)Nc1ncnc2[nH]ccc12 (stereo not shown) [AVI-3671]	<10	< 10	0.13	TRUE	1	–
OCC(Cc1nccs1)Nc1ncnc2[nH]ccc12 (stereo not shown) [AVI-3673]	38	38	0.15	TRUE	1	–
Cc1ccccc1CC(CO)Nc1ncnc2[nH]ccc12 (stereo not shown) [AVI-3674]	32	32	0.15	TRUE	1	–
OCC(CN1CCCCC1)Nc1ncnc2[nH]ccc12 (stereo not shown) [AVI-3677]	<10	< 10	0.18	TRUE	1	–
OCC(Nc1ncnc2[nH]ccc12)C1CCOC1 (stereo not shown) [AVI-3679]	35	35	0.11	TRUE	1	–
O=C(O)C(F)(F)F.OCC12CC(CN1c1ncnc3[nH]ccc13)C2 [AVI-3681]	–	54	0.12	TRUE	1	inhibition at 200 µM [1, 6]: 54%
Cc1ccc(CC(CO)Nc2ncnc3[nH]ccc23)cc1 (stereo not shown) [AVI-3683]	14	14	–	–	2	Isomers modeled [2]: S,R
Cc1ccc(CC(CO)Nc2ncnc3[nH]ccc23)cc1C (stereo not shown) [AVI-3684]	<10	< 10	–	–	2	Isomers modeled [2]: R,S
OCC1CCCN1c1ncnc2[nH]ccc12 (stereo not shown) [AVI-3685]	–	48	–	–	1	fold decrease in affinity relative to AVI-607 ([1]; HTRF): > 20 fold; inhibition at 200 µM [1, 6]: 47%
OCC(Cc1ccc(I)cc1)Nc1ncnc2[nH]ccc12 (stereo not shown) [AVI-3686]	<10	< 10	0.19	TRUE	2	Isomers modeled [2]: S,R
O=C(O)C(F)(F)F.OCC1(Nc2ncnc3[nH]ccc23)CC1 [AVI-3688]	72	72	0.17	TRUE	1	–

Compound	Average % competition [1] [%]	inhibition at 200 µM [1, 3] [%]	PanDDA run, TFA/DMSO background map: 1-BDC [2]	PanDDA run, TFA/DMSO background map: Hit [2]	Number of isomers bound [2]	other results
OCC(CC1CCCCC1)Nc1ncnc2[nH]ccc12 (stereo not shown) [AVI-3690]	66	66	–	–	1	–
OCC(CC1CCCC1)Nc1ncnc2[nH]ccc12 (stereo not shown) [AVI-3691]	52	53	0.1	TRUE	1	–
O=C(O)C(F)(F)F.OCC1(Nc2ncnc3[nH]ccc23)CCCC1 [AVI-3692]	–	–	0.11	TRUE	1	pKi [1, 4]: 4.34; Ligand efficiency (binding enery per heavy atom) [1, 4]: 0.35; pIC50 [1, 5]: 4.31
OCC(Nc1ncnc2[nH]ccc12)C1CCc2ccccc21 (stereo not shown) [AVI-3693]	78	78	–	–	2	Isomers modeled [2]: RR,SR
CCC(CC)(CO)Nc1ncnc2[nH]ccc12 [AVI-3695]	–	–	–	–	1	pKi [1, 4]: 4.43; Ligand efficiency (binding enery per heavy atom) [1, 4]: 0.36; pIC50 [1, 5]: 4.40
OCC(Cc1ccccn1)Nc1ncnc2[nH]ccc12 (stereo not shown) [AVI-3696]	34	34	–	–	2	Isomers modeled [2]: R,S
CCC(C)(CO)Nc1ncnc2[nH]ccc12 (stereo not shown) [AVI-3697]	–	–	–	–	1	pKi [1, 4]: 4.47; Ligand efficiency (binding enery per heavy atom) [1, 4]: 0.39; pIC50 [1, 5]: 4.44
OCC(O)C1CCCN1c1ncnc2[nH]ccc12 (stereo not shown) [AVI-3701]	–	54	0.16	TRUE	1	inhibition at 200 µM [1, 6]: 54%
O=C(O)C(F)(F)F.OC[C@H]1CC2(CN1c1ncnc3[nH]ccc13)OCCO2 [AVI-3702]	–	17	0.13	TRUE	1	inhibition at 200 µM [1, 6]: 17%
OCC(Cc1cncs1)Nc1ncnc2[nH]ccc12 (stereo not shown) [AVI-3703]	28	28	0.1	TRUE	1	–
CC1(C)C[C@@H](CO)N(c2ncnc3[nH]ccc23)C1.O=C(O)C(F)(F)F [AVI-3704]	–	–	–	–	1	pKi [1, 4]: 4.57; Ligand efficiency (binding enery per heavy atom) [1, 4]: 0.35; pIC50 [1, 5]: 4.54
OCC(Cc1ccoc1)Nc1ncnc2[nH]ccc12 (stereo not shown) [AVI-3705]	64	64	0.14	TRUE	1	–
OCC1CC2(CCOCC2)CN1c1ncnc2[nH]ccc12 (stereo not shown) [AVI-3707]	–	39	0.15	TRUE	1	inhibition at 200 µM [1, 6]: 39%
OCC1CC2(CCCC2)CN1c1ncnc2[nH]ccc12 (stereo not shown) [AVI-3708]	–	–	–	–	1	pKi [1, 4]: 4.60; Ligand efficiency (binding enery per heavy atom) [1, 4]: 0.32; pIC50 [1, 5]: 4.57
OCC(COCc1ccccc1)Nc1ncnc2[nH]ccc12 (stereo not shown) [AVI-3709]	29	29	0.16	TRUE	2	Isomers modeled [2]: S,R
